# In patent US4357344A, “Polybutylbenzylphenols and benzyl-3,4-methylenedioxybenzenes in insect population control” (The United States of America as represented by the …, priority 1979, dated 1982):
# Experiments:
# Type in all cases: in vivo
# flies (family Muscidae) [1] = test: Oviposition inhibition tests (treated fly food; Examples 6-9)
# Experimental: The compound to be tested was administered in a standard fly food containing 6 parts of sugar, 6 parts of powdered non-fat dry milk, and 1 part of powdered egg yolk. Treated food was prepared by mixing an appropriate amount of a solution or suspension of CBCP in acetone with a batch of the food. The acetone was evaporated (4-6 hours) and the dry material was repulverized. Oviposition inhibition tests: Samples of treated food with a container of water were placed in cages containing 100 newly-emerged adult flies (family Muscidae). After the flies had been exposed to the treated diet for 6-7 days, 1/2 inch of moist standard fly larva-rearing medium (CSMA) in souffle cups was placed in the cages for oviposition. After 4-6 hours, the cup was removed and examined for eggs. […] The procedure outlined in Example 6 was followed using a Group II compound. The procedure outlined in Example 6 was followed using Group III compounds. The results are summarized below: The procedure outlined in Example 6 was followed substituting a Group IV compound for those of Group I. The table below provides a summary of results.
# [2] = tested on: early fourth-stage larvae of the common malaria mosquito (Anopheles quadrimaculatus); test: Growth-inhibition tests on mosquito larvae; settings: in water; corrected by Abbott's formula
# Experimental: The compound to be tested was added to one liter of water until the final concentration thereof was a growth-inhibiting amount. Fifty early fourth-stage larvae of the common malaria mosquito (Anopheles quadrimaculatus) were placed on this water. Larval food was administered daily. Dead larvae and pupae were removed, counted, and discarded daily. Live pupae were removed, rinsed, and transferred to a cup of distilled water. The cup was placed in an emergence cage, and the emerging adults, if any, were maintained on a sugar-water diet.
# The effectiveness of the compound in inhibiting growth was determined by adding the number of dead larvae and pupae and the number of adults that were dead, unable to complete eclosion, and malformed. This sum was corrected by Abbott's formula (to adjust for the number of larvae or pupae which would die naturally) and designated as the GI (growth inhibition). The results are expressed as GI-90, i.e., the concentration of growth inhibitor in ppm that would prevent and/or retard growth in 90% of the treated larvae.
# flies (family Muscidae) [3] = test: Chemosterilancy tests (egg hatch and pupal development; Examples 6-9)
# Experimental: The compound to be tested was administered in a standard fly food containing 6 parts of sugar, 6 parts of powdered non-fat dry milk, and 1 part of powdered egg yolk. Treated food was prepared by mixing an appropriate amount of a solution or suspension of CBCP in acetone with a batch of the food. The acetone was evaporated (4-6 hours) and the dry material was repulverized.
# Chemosterilancy tests: If eggs were laid in the above tests, the cups were filled with water and stirred to break up the egg masses. A random sample of 100 eggs from each cup was collected and placed on a small piece of black cloth which was then laid on top of moist larva-rearing medium in a rearing container. Observations were made to determine percentage of egg hatch and pupal development.
# The procedure outlined in Example 6 was followed using a Group II compound.
# The procedure outlined in Example 6 was followed using Group III compounds. The results are summarized below:
# The procedure outlined in Example 6 was followed substituting a Group IV compound for those of Group I. The table below provides a summary of results.
SMILES,"Mortality, parent generation (flies (family Muscidae) [1]; 0.05% in food)",GI-90 (concentration of growth inhibitor that would prevent and/or retard growth in 90% of the treated larvae) [2],Egg hatch (flies (family Muscidae) [3]; 0.05% in food),Pupal development (flies (family Muscidae) [3]; 0.05% in food),"Mortality, parent generation (flies (family Muscidae) [1]; 0.1% in food)","Mortality, parent generation (flies (family Muscidae) [1]; 0.25% in food)","Mortality, parent generation (flies (family Muscidae) [1]; 0.5% in food)",Egg hatch (flies (family Muscidae) [3]; 0.1% in food),Pupal development (flies (family Muscidae) [3]; 0.1% in food),Egg hatch (flies (family Muscidae) [3]; 0.25% in food),Pupal development (flies (family Muscidae) [3]; 0.25% in food),Egg hatch (flies (family Muscidae) [3]; 0.5% in food),Pupal development (flies (family Muscidae) [3]; 0.5% in food),further results
"CCCCOc1cc2c(cc1C(C)c1ccc(OC)cc1)OCO2 (stereo not drawn) [J, (α-methyl-4-methoxybenzyl)-3,4-methylenedioxy-6-n-butoxybenzene]",0%,0.025 ppm,3%,3%,–,–,–,–,–,–,–,–,–,"Mortality, parent generation (flies (family Muscidae) [1]; 0.01% in food): 0%; Mortality, parent generation (flies (family Muscidae) [1]; 0.025% in food): 0%; Egg hatch (flies (family Muscidae) [3]; 0.025% in food): 61%; Pupal development (flies (family Muscidae) [3]; 0.025% in food): 61%"
"CCCOc1cc2c(cc1C(C)c1ccccc1)OCO2 (stereo not drawn) [U, (α-Methylbenzyl)-3,4-methylenedioxy-6-n-propoxybenzene]",0%,0.3 ppm,0%,0%,0%,0%,0%,0%,0%,0%,0%,0%,0%,"Mortality, parent generation (flies (family Muscidae) [1]; 0.025% in food): 0%; Mortality, parent generation (flies (family Muscidae) [1]; 1.0% in food): 0%; Egg hatch (flies (family Muscidae) [3]; 0.025% in food): 42%; Pupal development (flies (family Muscidae) [3]; 0.025% in food): 42%; Egg hatch (flies (family Muscidae) [3]; 1.0% in food): 0%; Pupal development (flies (family Muscidae) [3]; 1.0% in food): 0%"
"COc1ccc(Cc2cc3c(cc2OCC(C)C)OCO3)cc1 [Q, (4-Methoxybenzyl)-3,4-methylenedioxy-6-iso-butoxybenzene]",0%,0.082 ppm,28%,28%,0%,0%,90%,0%,0%,0%,0%,–,–,–
"COc1cc2c(cc1C(C)c1ccccc1)OCO2 (stereo not drawn) [Compound T, (α-Methylbenzyl)-3,4-methylenedioxy-6-methoxybenzene]",–,0.6 ppm,–,–,–,60%,42%,–,–,56%,56%,0%,0%,–
"COc1ccc(Cc2cc3c(cc2OCCC(C)C)OCO3)cc1 [S, (4-Methoxybenzyl)-3,4-methylenedioxy-6-iso-pentoxybenzene]",0%,0.036 ppm,55%,55%,0%,0%,0%,6%,6%,0%,0%,0%,0%,–
"CCOc1cc2c(cc1Cc1ccc3c(c1)OCO3)OCO2 [NN, (3,4-methylenedioxy-6-ethoxybenzyl)-3,4-methylenedioxybenzene]",0%,–,2%,2%,0%,–,–,0%,0%,–,–,–,–,–
"CCCCCOc1cc2c(cc1C(C)c1ccccc1)OCO2 (stereo not drawn) [W, (α-Methylbenzyl)-3,4-methylenedioxy-6-n-pentoxybenzene]",–,0.2 ppm,–,–,–,–,–,–,–,–,–,–,–,–
"COc1ccc(Cc2ccc3c(c2)OCO3)c(OC)c1 [LL, (2,4-Dimethoxybenzyl)-3,4-methylenedioxybenzene]",–,0.2 ppm,–,–,0%,60%,–,76%,76%,–,–,–,–,–
"COc1ccc(Cc2cc3c(cc2OC)OCO3)cc1 [L, (4-Methoxybenzyl)-3,4-methylenedioxy-6-methoxybenzene]",0%,–,0%,0%,0%,60%,–,0%,0%,–,–,–,–,"Mortality, parent generation (flies (family Muscidae) [1]; 0.01% in food): 0%; Egg hatch (flies (family Muscidae) [3]; 0.01% in food): 91%; Pupal development (flies (family Muscidae) [3]; 0.01% in food): 91%"
"CCCCOc1cc2c(cc1C(C)c1ccccc1)OCO2 (stereo not drawn) [V, (α-Methylbenzyl)-3,4-methylenedioxy-6-n-butoxybenzene]",–,0.097 ppm,–,–,–,–,0%,–,–,–,–,34%,34%,–
"CC(c1ccccc1)c1cc(C(C)(C)C)c(O)c(C(C)(C)C)c1 (stereo not drawn) [E, 2,6-Di-t-butyl-4-(α-methylbenzyl)phenol]",–,0.072 ppm,–,–,0%,0%,0%,36%,36%,0%,0%,0%,0%,"Mortality, parent generation (flies (family Muscidae) [1]; 1.0% in food): 0%; Oviposition (flies (family Muscidae) [1]; 1.0% in food): Normal; Egg hatch (flies (family Muscidae) [3]; 1.0% in food): 0%; Pupal development (flies (family Muscidae) [3]; 1.0% in food): 0%"
CCCCCOc1cc2c(cc1Cc1ccc(OC)cc1)OCO2 [R],0%,–,76%,76%,0%,0%,–,31%,31%,0%,0%,–,–,–
CCOc1c(C)cc(Cc2ccc3c(c2)OCO3)cc1C [KK],–,0.9 ppm,–,–,–,0%,85%,–,–,85%,85%,–,–,–
"COc1ccc(Cc2ccc3c(c2)OCO3)cc1C [HH, (3-Methyl-4-methoxybenzyl)-3,4-methylenedioxybenzene]",–,–,–,–,0%,80%,–,82%,82%,–,–,–,–,–
"CCOc1ccc(Cc2ccc3c(c2)OCO3)cc1C [II, (3-Methyl-4-ethoxybenzyl)-3,4-methylenedioxybenzene]",–,–,–,–,–,0%,80%,–,–,50%,50%,–,–,–
